Our source for the AC50 values is ChEMBL document CHEMBL5291721, “A preclinical secondary pharmacology resource illuminates target-adverse drug reaction associations of marketed drugs” (Nat Commun, 2023).

What is called AC50 is the concentration at which the activity in the assay is half-maximal. A high value points to weaker potency.

For assay [1], the target named is T1, 5-hydroxytryptamine receptor 1A (Homo sapiens, UniProt P08908).
T1 sequence (P08908 whole entry): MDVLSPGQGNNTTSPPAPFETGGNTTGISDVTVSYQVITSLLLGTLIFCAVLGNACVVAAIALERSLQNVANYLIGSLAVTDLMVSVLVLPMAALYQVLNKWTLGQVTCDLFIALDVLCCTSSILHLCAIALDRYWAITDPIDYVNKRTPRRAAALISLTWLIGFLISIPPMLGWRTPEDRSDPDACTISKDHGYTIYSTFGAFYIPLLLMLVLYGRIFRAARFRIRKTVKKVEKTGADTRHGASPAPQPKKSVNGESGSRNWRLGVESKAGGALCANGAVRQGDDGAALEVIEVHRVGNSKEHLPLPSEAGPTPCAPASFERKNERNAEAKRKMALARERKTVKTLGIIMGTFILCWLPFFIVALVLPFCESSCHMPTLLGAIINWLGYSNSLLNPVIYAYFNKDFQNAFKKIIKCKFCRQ
The assay is classed as functional, cell-based.

Assay [2] concerns the target Glutamate receptor ionotropic, NMDA 1 (Rattus norvegicus, UniProt P35439).
In assay [3] the target is T2, Prostaglandin G/H synthase 1 (Rattus norvegicus, UniProt Q63921).
T2 sequence (Q63921 whole entry): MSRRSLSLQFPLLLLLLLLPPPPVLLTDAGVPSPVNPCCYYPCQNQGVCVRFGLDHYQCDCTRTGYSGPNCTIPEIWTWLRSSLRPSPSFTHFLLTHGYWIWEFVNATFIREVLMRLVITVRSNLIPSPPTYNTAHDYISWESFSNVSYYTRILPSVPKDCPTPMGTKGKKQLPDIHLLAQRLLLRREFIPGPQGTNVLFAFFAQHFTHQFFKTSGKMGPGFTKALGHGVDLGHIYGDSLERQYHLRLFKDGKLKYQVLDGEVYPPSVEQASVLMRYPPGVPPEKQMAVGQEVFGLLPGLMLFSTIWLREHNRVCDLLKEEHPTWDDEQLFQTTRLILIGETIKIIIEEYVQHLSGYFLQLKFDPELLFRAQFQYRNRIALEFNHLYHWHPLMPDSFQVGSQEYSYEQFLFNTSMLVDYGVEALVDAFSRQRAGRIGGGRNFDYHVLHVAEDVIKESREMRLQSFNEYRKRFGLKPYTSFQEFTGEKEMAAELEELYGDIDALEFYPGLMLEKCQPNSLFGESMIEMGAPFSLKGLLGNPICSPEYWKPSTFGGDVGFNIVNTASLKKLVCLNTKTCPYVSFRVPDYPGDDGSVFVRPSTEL
The assay is classed as functional.

Assay [4] addresses T3, Muscarinic acetylcholine receptor M1 (Homo sapiens, UniProt P11229).
T3 sequence (P11229 whole entry): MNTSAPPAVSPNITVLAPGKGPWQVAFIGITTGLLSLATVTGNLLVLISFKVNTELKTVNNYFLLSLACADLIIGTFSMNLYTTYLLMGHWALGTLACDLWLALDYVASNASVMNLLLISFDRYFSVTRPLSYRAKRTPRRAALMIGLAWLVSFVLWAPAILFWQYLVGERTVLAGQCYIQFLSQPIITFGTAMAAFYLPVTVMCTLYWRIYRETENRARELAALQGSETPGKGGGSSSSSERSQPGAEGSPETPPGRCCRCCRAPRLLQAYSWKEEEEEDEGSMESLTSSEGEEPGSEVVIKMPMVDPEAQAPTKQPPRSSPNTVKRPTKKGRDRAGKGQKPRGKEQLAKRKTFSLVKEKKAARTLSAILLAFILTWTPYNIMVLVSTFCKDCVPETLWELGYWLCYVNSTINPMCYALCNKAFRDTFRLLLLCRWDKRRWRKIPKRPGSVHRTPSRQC
The assay is classed as functional.

Assay [5] has as its target T4, 5-hydroxytryptamine receptor 2C (Homo sapiens, UniProt P28335).
T4 sequence (P28335 whole entry): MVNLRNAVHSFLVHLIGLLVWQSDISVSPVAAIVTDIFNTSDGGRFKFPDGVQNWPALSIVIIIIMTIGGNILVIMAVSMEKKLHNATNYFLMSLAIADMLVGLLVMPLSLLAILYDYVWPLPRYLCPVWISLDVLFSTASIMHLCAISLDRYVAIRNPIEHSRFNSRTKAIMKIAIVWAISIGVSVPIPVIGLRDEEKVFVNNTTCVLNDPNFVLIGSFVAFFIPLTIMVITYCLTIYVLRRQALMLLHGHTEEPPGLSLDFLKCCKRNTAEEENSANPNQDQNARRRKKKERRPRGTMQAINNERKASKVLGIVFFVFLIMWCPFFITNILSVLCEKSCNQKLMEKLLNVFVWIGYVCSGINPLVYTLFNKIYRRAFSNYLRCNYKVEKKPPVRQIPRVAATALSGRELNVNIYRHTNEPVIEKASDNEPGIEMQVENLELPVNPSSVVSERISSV

Assay [6] addresses 5-hydroxytryptamine receptor 2B (Homo sapiens, UniProt P41595). The assay is classed as functional, cell-based.
In assay [7] the target is Sodium-dependent noradrenaline transporter (Homo sapiens, UniProt P23975).
Assay [8] addresses Beta-1 adrenergic receptor (Homo sapiens, UniProt P08588). The assay is classed as functional.
Assay [9] concerns the target T5, Estrogen receptor (Homo sapiens, UniProt P03372).
T5 sequence (P03372 whole entry): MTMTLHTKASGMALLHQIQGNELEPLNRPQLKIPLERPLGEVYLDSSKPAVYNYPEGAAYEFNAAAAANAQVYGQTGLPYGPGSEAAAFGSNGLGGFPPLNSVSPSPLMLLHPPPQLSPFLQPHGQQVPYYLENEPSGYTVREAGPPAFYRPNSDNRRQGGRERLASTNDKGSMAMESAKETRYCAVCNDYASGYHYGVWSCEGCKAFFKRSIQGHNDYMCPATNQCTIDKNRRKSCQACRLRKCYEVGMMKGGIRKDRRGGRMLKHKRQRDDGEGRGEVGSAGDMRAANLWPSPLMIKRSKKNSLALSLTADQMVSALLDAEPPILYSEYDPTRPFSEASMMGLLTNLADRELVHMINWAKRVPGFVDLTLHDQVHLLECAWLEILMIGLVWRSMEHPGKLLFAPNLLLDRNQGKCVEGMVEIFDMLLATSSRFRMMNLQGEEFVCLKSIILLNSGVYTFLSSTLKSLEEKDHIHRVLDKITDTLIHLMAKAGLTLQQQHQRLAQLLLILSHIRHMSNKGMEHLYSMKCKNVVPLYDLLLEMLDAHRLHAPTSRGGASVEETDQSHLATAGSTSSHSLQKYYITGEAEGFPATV

For assay [10], the target named is Histamine H2 receptor (Homo sapiens, UniProt P25021). The assay is classed as functional, cell-based.
Also: assay procedure not described here.

Sequence of Histamine H2 receptor (P25021 whole entry): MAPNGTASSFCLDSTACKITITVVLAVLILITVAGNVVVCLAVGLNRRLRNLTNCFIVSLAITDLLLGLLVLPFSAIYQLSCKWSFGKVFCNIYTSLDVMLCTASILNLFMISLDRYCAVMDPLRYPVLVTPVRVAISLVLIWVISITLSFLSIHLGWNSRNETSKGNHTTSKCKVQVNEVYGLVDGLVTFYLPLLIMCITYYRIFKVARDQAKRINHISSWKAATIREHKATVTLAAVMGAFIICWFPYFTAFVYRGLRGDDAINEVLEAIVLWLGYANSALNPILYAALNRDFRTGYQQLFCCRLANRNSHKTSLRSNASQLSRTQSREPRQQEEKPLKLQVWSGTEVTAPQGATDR
Sequence of Beta-1 adrenergic receptor (P08588 whole entry): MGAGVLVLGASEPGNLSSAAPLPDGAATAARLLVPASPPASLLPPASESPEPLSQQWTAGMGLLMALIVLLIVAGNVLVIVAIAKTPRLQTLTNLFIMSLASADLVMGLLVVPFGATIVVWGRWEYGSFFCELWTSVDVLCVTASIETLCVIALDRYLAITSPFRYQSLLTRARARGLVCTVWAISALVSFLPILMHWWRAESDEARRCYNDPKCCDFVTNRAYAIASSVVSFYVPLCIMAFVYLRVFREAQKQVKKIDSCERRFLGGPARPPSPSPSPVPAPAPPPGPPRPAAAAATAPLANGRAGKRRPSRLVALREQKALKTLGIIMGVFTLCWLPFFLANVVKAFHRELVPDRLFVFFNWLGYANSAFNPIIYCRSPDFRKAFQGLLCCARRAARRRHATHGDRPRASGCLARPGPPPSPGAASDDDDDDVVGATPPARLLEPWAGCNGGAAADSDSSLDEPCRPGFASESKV
Sequence of Sodium-dependent noradrenaline transporter (P23975 whole entry): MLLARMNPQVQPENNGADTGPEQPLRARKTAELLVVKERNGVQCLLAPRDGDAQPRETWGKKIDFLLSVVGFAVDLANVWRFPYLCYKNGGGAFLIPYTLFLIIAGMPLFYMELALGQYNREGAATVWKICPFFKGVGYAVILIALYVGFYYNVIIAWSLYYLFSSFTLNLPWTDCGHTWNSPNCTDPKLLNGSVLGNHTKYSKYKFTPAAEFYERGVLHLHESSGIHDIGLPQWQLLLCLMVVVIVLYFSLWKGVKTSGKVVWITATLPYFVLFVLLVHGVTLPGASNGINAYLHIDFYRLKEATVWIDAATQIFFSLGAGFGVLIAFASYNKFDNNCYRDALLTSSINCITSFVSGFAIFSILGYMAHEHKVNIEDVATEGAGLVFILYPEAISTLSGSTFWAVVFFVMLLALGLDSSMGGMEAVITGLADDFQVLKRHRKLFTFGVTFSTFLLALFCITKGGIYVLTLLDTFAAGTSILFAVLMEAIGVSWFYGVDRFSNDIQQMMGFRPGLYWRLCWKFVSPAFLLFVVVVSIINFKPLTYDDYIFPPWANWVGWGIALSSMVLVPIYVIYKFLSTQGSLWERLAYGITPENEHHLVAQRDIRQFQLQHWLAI
Sequence of 5-hydroxytryptamine receptor 2B (P41595 whole entry): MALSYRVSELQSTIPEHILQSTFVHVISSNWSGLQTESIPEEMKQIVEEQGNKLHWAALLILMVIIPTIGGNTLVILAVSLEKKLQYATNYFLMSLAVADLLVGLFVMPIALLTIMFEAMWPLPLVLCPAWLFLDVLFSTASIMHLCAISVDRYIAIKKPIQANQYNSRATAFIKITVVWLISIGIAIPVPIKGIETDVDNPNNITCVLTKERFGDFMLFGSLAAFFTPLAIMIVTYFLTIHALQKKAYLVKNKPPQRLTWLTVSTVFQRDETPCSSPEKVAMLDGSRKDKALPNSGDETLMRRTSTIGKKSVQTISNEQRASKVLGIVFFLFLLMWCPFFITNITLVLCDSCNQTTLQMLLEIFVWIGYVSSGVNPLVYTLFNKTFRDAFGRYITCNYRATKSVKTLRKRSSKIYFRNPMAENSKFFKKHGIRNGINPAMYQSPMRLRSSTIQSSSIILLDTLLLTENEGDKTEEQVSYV

As for `Nc1nc(/C(=C/CC(=O)O)C(=O)N[C@@H]2C(=O)N3C(C(=O)O)=CCS[C@H]23)cs1` [CEFTIBUTEN], the AC50 in [1], in assay [2], in assay [3], in [4], in assay [5] and in [6] was > 30 µM throughout. For the same molecule, the concentration at half-maximal activity (AC50) in assay [7], in assay [8], in [9] and in [10] was > 30 µM throughout.

For `COc1ccc2c3c1O[C@H]1[C@@H](O)C=C[C@H]4[C@@H](C2)N(C)CC[C@@]341` [CODEINE], the AC50 in assay [1] is > 10 µM; in assay [2], > 10 µM; in [3], > 30 µM; in assay [4], > 10 µM; in [5] it was > 30 µM; in assay [6], > 10 µM. The AC50 in assay [7] is > 30 µM; in assay [8], 0.9 µM; in [9] it was > 30 µM; in assay [10], > 10 µM.

As for `CC1(C)O[C@@H]2C[C@H]3[C@@H]4CCC5=CC(=O)C=C[C@]5(C)[C@H]4[C@@H](O)C[C@]3(C)[C@]2(C(=O)CO)O1` [DESONIDE], the AC50 was > 10 µM in assay [1]; > 10 µM in [2]; > 10 µM in assay [3]; > 10 µM in assay [4]; > 30 µM in assay [5]; > 10 µM in assay [6]. Besides, the AC50 is > 10 µM in [7], > 10 µM in assay [8], > 30 µM in assay [9] and > 10 µM in assay [10].

As to `CCC(C(=O)O)c1ccc(N2Cc3ccccc3C2=O)cc1` (stereo not given) [INDOBUFEN], the AC50 in [1] was 1.9 µM; in [2] it was > 30 µM; in assay [3] it was 0.8 µM; in [4], > 30 µM; in assay [5], > 30 µM; in [6], > 30 µM. For the same molecule, the AC50 in assay [7], in assay [8], in assay [9] and in [10] was > 30 µM each time.

Consider `CO[C@@H]1[C@@H](O[C@@H]2O[C@H](C)[C@@H](O[C@H]3C[C@@](C)(O)[C@@H](OC(=O)CC(C)C)[C@H](C)O3)[C@H](N(C)C)[C@H]2O)[C@@H](CC=O)C[C@@H](C)[C@@H](O)/C=C/C=C/C[C@@H](C)OC(=O)C[C@H]1OC(C)=O` [JOSAMYCIN], for which the AC50 in [1] was > 10 µM; in assay [2], > 10 µM; in assay [3], > 10 µM; in [4], > 10 µM; in assay [5], > 30 µM; in assay [6], > 10 µM. For the same molecule, the AC50 in [7], in assay [8], in assay [9] and in [10] was > 10 µM each time.

In the case of `CC(C)OC(=O)CCC/C=C\C[C@@H]1[C@@H](CC[C@@H](O)CCc2ccccc2)[C@H](O)C[C@@H]1O` [LATANOPROST], the AC50 in [1], in assay [2], in [3], in assay [4], in assay [5] and in assay [6] was > 30 µM in each case. For the same molecule, the AC50 in assay [7], in [8], in assay [9] and in [10] was > 30 µM in each case.

On to `COC(=O)C1=C(C)NC(C)=C(C(=O)OC(C)(C)CN(C)CCC(c2ccccc2)c2ccccc2)C1c1cccc([N+](=O)[O-])c1` (stereo not given) [LERCANIDIPINE], for which the AC50 is > 30 µM in assay [1]; > 30 µM in assay [2]; 18.7 µM in assay [3]; > 30 µM in assay [4]; > 30 µM in assay [5]; > 30 µM in assay [6]. For the same molecule, the AC50 in assay [7], in assay [8], in [9] and in assay [10] was > 30 µM in each case.

As to `CN1C(=O)C(O)N=C(c2ccccc2Cl)c2cc(Cl)ccc21` (stereo not given) [LORMETAZEPAM], the AC50 was > 30 µM in assay [1]; > 30 µM in [2]; > 10 µM in [3]; > 30 µM in assay [4]; > 30 µM in assay [5]; > 30 µM in [6]. For the same molecule, the concentration at half-maximal activity (AC50) in assay [7], in assay [8], in [9] and in assay [10] was > 30 µM throughout.

With `C[C@H](N)[C@H](O)c1cccc(O)c1` [METARAMINOL], the half-maximal activity concentration (AC50) in assay [1] is > 10 µM; in assay [2], > 10 µM; in [3], > 10 µM; in assay [4], > 10 µM; in assay [5] it was > 30 µM; in [6], 7.4 µM. Also, the AC50 in assay [7] is > 10 µM; in [8] it was 14.3 µM; in [9] it was > 10 µM; in [10], > 30 µM.

`CCC1(CC)C(=O)NCC(C)C1=O` (stereo not given) [METHYPRYLON]: the AC50 in assay [1], in [2], in assay [3], in [4], in assay [5] and in assay [6] was > 30 µM in each case. Also, the AC50 in [7], in [8], in [9] and in [10] was > 30 µM each time.

Regarding `O=C(O)[C@H](CC(=O)N1C[C@H]2CCCC[C@H]2C1)Cc1ccccc1` [MITIGLINIDE], the AC50 in [1] was > 10 µM; in [2] it was > 10 µM; in assay [3], > 10 µM; in [4], > 10 µM; in assay [5], > 30 µM; in assay [6], > 10 µM. Moreover, the AC50 in assay [7], in assay [8], in assay [9] and in assay [10] was > 10 µM throughout.
